Measured values reported in US10173985B2, “Aminoindazole derivatives as sodium channel inhibitors” (ALMIRALL, S.A., priority 2015, dated 2019).

How the values were obtained:
[1] = molecular target: voltage-gated sodium channel Nav1.7 (Homo sapiens (Human), UniProt Q15858); assay: Nav1.7 screening assay, IonWorks Quattro automated patch-clamp electrophysiology; assay type: cell-based; conditions: stable CHO or HEK293 cell line expressing Nav1.7; percent block at peak 1 and peak 10; 5 minutes compound incubation; read-out: Nav 1.7 IC50
voltage-gated sodium channel Nav1.7, sequence (Q15858 whole entry): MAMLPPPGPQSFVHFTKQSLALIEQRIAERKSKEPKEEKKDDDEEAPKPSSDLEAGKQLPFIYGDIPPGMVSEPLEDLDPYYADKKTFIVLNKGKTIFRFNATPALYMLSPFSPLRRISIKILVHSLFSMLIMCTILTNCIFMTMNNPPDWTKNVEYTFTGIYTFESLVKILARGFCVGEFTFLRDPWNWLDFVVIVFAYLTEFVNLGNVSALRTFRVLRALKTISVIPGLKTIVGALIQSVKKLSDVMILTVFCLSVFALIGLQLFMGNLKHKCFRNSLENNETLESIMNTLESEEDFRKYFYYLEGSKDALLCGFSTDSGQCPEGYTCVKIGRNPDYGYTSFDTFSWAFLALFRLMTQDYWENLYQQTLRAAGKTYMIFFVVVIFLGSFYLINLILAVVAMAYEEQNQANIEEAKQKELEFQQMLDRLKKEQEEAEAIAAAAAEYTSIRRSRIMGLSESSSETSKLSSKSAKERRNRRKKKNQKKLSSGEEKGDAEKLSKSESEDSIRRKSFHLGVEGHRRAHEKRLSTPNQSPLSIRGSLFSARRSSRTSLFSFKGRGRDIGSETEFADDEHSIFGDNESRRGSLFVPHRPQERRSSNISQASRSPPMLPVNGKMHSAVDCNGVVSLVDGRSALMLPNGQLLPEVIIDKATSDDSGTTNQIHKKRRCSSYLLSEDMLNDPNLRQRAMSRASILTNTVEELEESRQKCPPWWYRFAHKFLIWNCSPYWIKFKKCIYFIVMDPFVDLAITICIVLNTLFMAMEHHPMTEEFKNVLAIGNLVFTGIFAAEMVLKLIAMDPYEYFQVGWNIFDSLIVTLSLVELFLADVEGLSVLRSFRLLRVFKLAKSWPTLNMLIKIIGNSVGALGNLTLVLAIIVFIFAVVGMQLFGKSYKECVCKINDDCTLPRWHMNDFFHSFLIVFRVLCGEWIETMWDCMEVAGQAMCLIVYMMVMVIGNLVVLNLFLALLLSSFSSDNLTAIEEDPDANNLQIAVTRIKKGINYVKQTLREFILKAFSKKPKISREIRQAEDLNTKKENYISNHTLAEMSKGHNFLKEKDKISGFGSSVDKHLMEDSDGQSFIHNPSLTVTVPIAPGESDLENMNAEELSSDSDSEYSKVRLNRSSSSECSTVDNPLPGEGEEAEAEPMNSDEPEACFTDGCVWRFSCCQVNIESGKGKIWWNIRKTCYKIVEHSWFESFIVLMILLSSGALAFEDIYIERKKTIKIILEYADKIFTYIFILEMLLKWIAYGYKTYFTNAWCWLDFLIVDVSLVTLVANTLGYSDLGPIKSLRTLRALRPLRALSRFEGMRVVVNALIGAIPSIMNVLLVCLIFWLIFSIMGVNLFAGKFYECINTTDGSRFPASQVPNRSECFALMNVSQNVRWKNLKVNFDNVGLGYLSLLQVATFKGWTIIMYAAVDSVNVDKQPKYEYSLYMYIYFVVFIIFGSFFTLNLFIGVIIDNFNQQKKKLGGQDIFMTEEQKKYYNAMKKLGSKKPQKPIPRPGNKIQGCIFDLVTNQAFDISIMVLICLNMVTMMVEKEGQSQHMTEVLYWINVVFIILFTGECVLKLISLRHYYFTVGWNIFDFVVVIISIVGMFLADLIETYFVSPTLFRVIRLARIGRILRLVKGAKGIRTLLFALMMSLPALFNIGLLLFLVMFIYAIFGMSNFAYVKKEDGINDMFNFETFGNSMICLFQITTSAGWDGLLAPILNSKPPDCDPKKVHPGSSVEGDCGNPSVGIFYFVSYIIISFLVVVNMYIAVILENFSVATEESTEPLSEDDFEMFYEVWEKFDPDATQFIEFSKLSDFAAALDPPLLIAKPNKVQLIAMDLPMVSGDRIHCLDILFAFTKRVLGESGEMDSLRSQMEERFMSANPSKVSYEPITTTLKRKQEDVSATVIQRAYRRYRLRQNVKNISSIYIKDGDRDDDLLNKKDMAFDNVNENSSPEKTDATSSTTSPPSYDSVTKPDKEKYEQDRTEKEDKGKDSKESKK
Method: (§1) Assay Procedure Nav1.7 and Nav1.5 Screening Assay
(§2) Stable cell lines expressing the full-length protein of the voltage-gated sodium channels Nav1.7 or Nav1.5, with or without one beta-1, beta-2, beta-3, or beta-4 subunit, are created by transfected CHO cells or HEK293 cells, or any other suitable cell line, with a vector construct containing the complete open reading frame under a suitable promoter, as well known in the art.
(§3) Electrophysiological studies are performed with an IonWorks Quattro (Molecular Devices Corp.) automated patch-clamp electrophysiology platform as described by (Schroeder K et al. Journal of Biomolecular Screening 2003, 8 (1), 50-64). Buffers for the experiments have the following composition (mM): Internal solution; K-gluconate 100, KCl 40, MgCl2 3.2, HEPES 5, EGTA 3, pH 7.3. To this amphotericin B is added to final concentration of 0.1 mg/ml to generate access solution. External solution; Dulbecco's Phosphate buffered saline (D-PBS) NaCl 137.93, KCl 2.67, KH2PO4 1.47, Na2HPO4 8.06, CaCl2 0.90, MgCl2 0.49. Prior to the experiment the cells expressing the voltage-gated ion channel of interest are detached from the tissue culture flasks, centrifuged and resuspended in D-PBS. Compounds are prepared and serially diluted in DMSO and finally diluted 1:100 in D-PBS. Cells are exposed to compounds through the pipetting system integrated into the platform and the voltage-gated ion channel of interest is activated with specific voltage stimulation protocols. The following voltage stimulation protocol is used for testing compounds against the voltage-gated sodium channel Nav1.7; from a holding potential of −100 mV a train of eight 60 ms depolarising steps to −20 mV at a frequency of 14 Hz are employed followed by a further step to −20 mV for 2000 ms. After which the voltage is returned to −100 mV for 10 ms before another voltage step to −20 mV for 60 ms is applied. The following voltage stimulation protocol is used for testing compounds against the voltage-gated sodium channel Nav1.5; from a holding potential of −120 mV a train of twenty-six 120 ms depolarising steps to −20 mV at a frequency of 5 Hz are employed. Recordings are made before and after compound addition with the compound incubation time being 5 minutes.

[2] = molecular target: voltage-gated sodium channel Nav1.5 (Homo sapiens (Human), UniProt Q14524); assay: Nav1.5 screening assay, IonWorks Quattro automated patch-clamp electrophysiology; assay type: cell-based; conditions: stable CHO or HEK293 cell line expressing Nav1.5; percent block at peak 1 and 25; 5 minutes compound incubation; read-out: Nav 1.5 IC50
voltage-gated sodium channel Nav1.5, sequence (Q14524 whole entry): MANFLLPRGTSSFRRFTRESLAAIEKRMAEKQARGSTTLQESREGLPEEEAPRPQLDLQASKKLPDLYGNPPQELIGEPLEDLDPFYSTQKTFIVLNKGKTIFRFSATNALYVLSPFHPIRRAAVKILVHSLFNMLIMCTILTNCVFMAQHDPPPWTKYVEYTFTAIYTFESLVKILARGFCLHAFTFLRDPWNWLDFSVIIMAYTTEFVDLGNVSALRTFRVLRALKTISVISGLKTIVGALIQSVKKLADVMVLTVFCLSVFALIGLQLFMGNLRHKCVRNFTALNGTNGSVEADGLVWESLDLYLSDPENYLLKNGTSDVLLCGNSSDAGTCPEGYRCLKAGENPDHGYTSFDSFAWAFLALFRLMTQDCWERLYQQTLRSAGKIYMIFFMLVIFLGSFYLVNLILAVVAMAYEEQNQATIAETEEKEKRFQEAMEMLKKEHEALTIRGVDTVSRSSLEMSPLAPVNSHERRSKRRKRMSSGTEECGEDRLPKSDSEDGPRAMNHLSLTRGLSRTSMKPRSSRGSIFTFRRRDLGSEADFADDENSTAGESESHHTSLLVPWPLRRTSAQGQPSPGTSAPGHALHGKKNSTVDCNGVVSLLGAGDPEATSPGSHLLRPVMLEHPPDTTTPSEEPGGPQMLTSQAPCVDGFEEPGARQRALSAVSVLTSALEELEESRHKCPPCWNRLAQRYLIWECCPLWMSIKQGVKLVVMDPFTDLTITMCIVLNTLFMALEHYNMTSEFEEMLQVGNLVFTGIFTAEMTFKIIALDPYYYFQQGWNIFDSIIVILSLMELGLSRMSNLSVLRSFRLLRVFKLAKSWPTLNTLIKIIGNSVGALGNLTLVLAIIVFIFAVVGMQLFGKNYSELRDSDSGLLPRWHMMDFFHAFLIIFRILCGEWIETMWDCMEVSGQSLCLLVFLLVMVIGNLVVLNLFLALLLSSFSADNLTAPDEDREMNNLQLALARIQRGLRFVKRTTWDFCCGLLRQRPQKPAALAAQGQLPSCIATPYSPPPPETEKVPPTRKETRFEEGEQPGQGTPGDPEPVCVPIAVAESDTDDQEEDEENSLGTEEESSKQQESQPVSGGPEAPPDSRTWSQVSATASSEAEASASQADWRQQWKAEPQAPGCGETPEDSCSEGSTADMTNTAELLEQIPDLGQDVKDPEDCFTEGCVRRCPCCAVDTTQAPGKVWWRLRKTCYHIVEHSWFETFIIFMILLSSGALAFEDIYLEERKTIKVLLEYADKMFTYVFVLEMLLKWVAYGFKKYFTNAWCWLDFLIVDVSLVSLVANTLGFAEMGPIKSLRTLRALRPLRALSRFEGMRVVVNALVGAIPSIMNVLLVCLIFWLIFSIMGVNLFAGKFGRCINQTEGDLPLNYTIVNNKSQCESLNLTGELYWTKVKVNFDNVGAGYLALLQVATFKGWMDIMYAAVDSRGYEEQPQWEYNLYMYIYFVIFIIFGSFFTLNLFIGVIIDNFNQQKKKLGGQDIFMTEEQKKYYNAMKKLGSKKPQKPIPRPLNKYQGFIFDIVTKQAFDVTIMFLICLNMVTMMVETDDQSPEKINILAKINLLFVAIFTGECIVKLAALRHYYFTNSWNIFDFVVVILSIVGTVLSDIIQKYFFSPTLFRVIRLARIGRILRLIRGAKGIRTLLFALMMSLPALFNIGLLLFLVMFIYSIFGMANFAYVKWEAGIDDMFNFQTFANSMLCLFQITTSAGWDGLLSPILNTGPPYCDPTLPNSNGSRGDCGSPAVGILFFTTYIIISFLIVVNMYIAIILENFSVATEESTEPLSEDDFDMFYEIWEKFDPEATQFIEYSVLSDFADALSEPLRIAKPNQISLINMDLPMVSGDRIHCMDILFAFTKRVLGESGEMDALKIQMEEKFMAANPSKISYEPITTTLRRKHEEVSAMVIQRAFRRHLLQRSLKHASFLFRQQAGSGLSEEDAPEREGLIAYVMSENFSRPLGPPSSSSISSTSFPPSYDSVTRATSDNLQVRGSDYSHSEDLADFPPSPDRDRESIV
Method: as §1, §2, §3

Row | IC50 [1] | Molecule | IC50 [2]
1 | 1300 nM | CNc1nn(C)c2cc(-c3cccc(F)c3OCC(F)F)ccc12 [Example 57, 6-(2-(2,2-difluoroethoxy)-3-fluorophenyl)-N,1-dimethyl-1H-indazol-3-amine] | > 33000 nM
2 | 1500 nM | Cn1nc(NCCCO)c2ccc(-c3ccccc3OCC(F)(F)C(F)(F)F)cc21 [Example 27, 3-(1-methyl-6-(2-(2,2,3,3,3-pentafluoropropoxy)phenyl)-1H-indazol-3-ylamino)propan-1-ol] | 19800 nM
3 | 3650 nM | NC(=O)Cn1nc(N)c2ccc(-c3cccc(F)c3OCC(F)(F)C(F)(F)F)cc21 [Example 26, 2-(3-amino-6-(3-fluoro-2-(2,2,3,3,3-pentafluoropropoxy)phenyl)-1H-indazol-1-yl)acetamide] | 
4 | 200 nM | Nc1nn(CCCO)c2cc(-c3ccccc3OC(F)(F)F)ccc12 [Example 68, 3-(3-amino-6-(2-(trifluoromethoxy)phenyl)-1H-indazol-1-yl)propan-1-ol] | 25000 nM
5 | 2370 nM | Cn1nc(N)c2ccc(-c3cccnc3OCC(F)(F)F)cc21 [Example 47, 1-methyl-6-(2-(2,2,2-trifluoroethoxy)pyridin-3-yl)-1H-indazol-3-amine] | > 33000 nM
6 | 200 nM | COc1cccc(-c2ccc3c(N)nn(C)c3c2)c1OCC(F)(F)F [Example 40, 6-(3-methoxy-2-(2,2,2-trifluoroethoxy)phenyl)-1-methyl-1H-indazol-3-amine] | > 33000 nM
7 |  | COc1cccc(-c2ccc3c(N)nn(C)c3c2)c1OCC(F)F [Example 41, 6-(2-(2,2-difluoroethoxy)-3-methoxyphenyl)-1-methyl-1H-indazol-3-amine] | > 33000 nM
8 | 740 nM | Nc1nn(CCCO)c2cc(-c3ccccc3C(F)(F)F)ccc12 [Example 67, 3-(3-amino-6-(2-(trifluoromethyl)phenyl)-1H-indazol-1-yl)propan-1-ol] | 30000 nM
9 | 2000 nM | COCCn1nc(N)c2ccc(-c3ccccc3OC(F)(F)F)cc21 [Example 82, 1-(2-methoxyethyl)-6-(2-(trifluoromethoxy)phenyl)-1H-indazol-3-amine] | 
10 | 290 nM | Cn1nc(N)c2ccc(-c3cccc(F)c3OCC(F)F)cc21 [Example 42, 6-(2-(2,2-difluoroethoxy)-3-fluorophenyl)-1-methyl-1H-indazol-3-amine] | 23000 nM
11 | 560 nM | Cn1nc(N)c2ccc(-c3c(F)cccc3OCC(F)(F)C(F)(F)F)cc21 [Example 24, 6-(2-fluoro-6-(2,2,3,3,3-pentafluoropropoxy)phenyl)-1-methyl-1H-indazol-3-amine] | > 33000 nM
12 | 100 nM | Cn1nc(N)c2ccc(-c3cccc(F)c3OCC(F)(F)C(F)(F)F)cc21 [Example 22, 6-(3-fluoro-2-(2,2,3,3,3-pentafluoropropoxy)phenyl)-1-methyl-1H-indazol-3-amine] | > 33000 nM
13 | 1860 nM | CN1CCC(CNc2nn(C)c3cc(-c4cccc(F)c4OCC(F)(F)F)ccc23)CC1 [Example 44, 6-(3-fluoro-2-(2,2,2-trifluoroethoxy)phenyl)-1-methyl-N-((1-methylpiperidin-4-yl)methyl)-1H-indazol-3-amine] | 4500 nM
14 | 820 nM | Cn1nc(NCCO)c2ccc(-c3ccccc3OCC(F)(F)C(F)(F)F)cc21 [Example 12, 2-(1-methyl-6-(2-(2,2,3,3,3-pentafluoropropoxy)phenyl)-1H-indazol-3-ylamino)ethanol] | > 33000 nM
15 | 860 nM | Cn1nc(N)c2ccc(-c3cccc(F)c3OC(F)F)cc21 [Example 58, 6-(2-(difluoromethoxy)-3-fluorophenyl)-1-methyl-1H-indazol-3-amine] | > 33000 nM
16 | 320 nM | Cn1nc(N)c2ccc(-c3ccccc3OCC(F)(F)F)cc21 [Example 8, 1-methyl-6-(2-(2,2,2-trifluoroethoxy)phenyl)-1H-indazol-3-amine] | > 33000 nM
17 |  | COc1ccc(OCC(F)(F)C(F)(F)F)c(-c2ccc3c(N)nn(C)c3c2)c1 [Example 3, 6-(5-methoxy-2-(2,2,3,3,3-pentafluoropropoxy)phenyl)-1-methyl-1H-indazol-3-amine] | > 33000 nM

Row | Molecule | IC50 [1] | IC50 [2]
18 | 6-(2-(2,2,3,3,3-pentafluoropropoxy)phenyl)-1H-indazol-3-amine [Example 14] | 560 nM | 8000 nM
